This is an account of results in patent US12479847B2 (DANA-FARBER CANCER INSTITUTE, INC., priority 2019, dated 2025).

Where two headings read alike, the source gives them in different places.

Common to all, as to assay: KINOMEscan (ScanMAX) kinase profiling
Holding throughout (format): binding

Experiment [1] concerns the target T1, panel of 468 kinases (Homo sapiens, UniProt P42685).
T1 construct: purchased KINOMEscan (ScanMAX) service
The settings on record: FRK; 1 μM; read-out: % control.

Experiment [2] addresses T2, panel of 468 kinases (Homo sapiens, UniProt O94921).
T2 construct: purchased KINOMEscan (ScanMAX) service
The following applies: PFTK1; 1 μM; read-out: % control.

Experiment [3] has as its target T3, panel of 468 kinases (Homo sapiens, UniProt P07949).
T3 construct: purchased KINOMEscan (ScanMAX) service
The following applies: RET; 1 μM; read-out: % control.

Experiment [4] has as its target T4, panel of 468 kinases (Homo sapiens, UniProt Q9NRP7).
T4 construct: purchased KINOMEscan (ScanMAX) service
T4 sequence (Q9NRP7 1-1315): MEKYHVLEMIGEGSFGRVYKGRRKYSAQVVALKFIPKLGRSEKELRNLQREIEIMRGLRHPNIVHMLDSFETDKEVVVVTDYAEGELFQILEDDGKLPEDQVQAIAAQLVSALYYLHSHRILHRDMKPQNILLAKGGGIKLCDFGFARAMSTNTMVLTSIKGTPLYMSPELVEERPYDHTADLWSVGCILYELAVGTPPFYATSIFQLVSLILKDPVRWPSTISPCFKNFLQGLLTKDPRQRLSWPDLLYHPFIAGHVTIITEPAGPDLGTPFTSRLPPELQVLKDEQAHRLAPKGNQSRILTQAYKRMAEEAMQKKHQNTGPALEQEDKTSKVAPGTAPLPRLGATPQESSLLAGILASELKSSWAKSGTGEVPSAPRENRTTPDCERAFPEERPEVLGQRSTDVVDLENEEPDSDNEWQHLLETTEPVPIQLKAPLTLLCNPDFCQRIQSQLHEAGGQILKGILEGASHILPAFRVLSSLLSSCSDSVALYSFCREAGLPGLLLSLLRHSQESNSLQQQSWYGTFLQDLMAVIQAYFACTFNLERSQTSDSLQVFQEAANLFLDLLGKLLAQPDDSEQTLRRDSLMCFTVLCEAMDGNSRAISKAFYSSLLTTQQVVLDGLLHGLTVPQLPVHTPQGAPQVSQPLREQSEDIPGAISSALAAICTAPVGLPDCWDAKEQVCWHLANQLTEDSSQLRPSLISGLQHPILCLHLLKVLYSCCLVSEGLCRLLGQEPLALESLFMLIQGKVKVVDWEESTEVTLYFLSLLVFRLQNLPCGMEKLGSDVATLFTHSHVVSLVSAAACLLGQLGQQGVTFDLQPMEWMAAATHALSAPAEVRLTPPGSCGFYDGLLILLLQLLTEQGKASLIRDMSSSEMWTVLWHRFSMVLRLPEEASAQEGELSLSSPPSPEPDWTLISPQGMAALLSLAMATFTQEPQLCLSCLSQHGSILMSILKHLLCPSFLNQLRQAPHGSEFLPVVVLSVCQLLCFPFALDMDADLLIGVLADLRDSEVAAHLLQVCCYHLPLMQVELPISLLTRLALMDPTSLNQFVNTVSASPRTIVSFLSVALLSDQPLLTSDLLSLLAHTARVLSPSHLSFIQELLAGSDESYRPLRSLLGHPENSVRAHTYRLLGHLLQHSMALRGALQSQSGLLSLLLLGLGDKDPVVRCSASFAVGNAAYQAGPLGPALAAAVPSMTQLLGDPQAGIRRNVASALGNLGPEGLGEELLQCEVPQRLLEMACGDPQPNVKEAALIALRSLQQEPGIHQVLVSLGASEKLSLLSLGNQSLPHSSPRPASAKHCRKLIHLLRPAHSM
The settings on record: STK36; 1 μM; read-out: % control.

Experiment [5] has as its target T5, panel of 468 kinases (Homo sapiens, UniProt Q6P2M8).
T5 construct: purchased KINOMEscan (ScanMAX) service
The settings on record: CAMK1B; 1 μM; read-out: % control.

Experiment [6] deals with T6, panel of 468 kinases (Homo sapiens, UniProt P80192).
T6 construct: purchased KINOMEscan (ScanMAX) service
The following applies: MLK1; 1 μM; read-out: % control.

In experiment [7] the target is T7, panel of 468 kinases (Homo sapiens, UniProt Q8N568).
T7 construct: purchased KINOMEscan (ScanMAX) service
The following applies: DCAMKL2; 1 μM; read-out: % control.

The target of experiment [8] is T8, panel of 468 kinases (Homo sapiens, UniProt P41240).
T8 construct: purchased KINOMEscan (ScanMAX) service
The following applies: CSK; 1 μM; read-out: % control.

The target in experiment [9] is T9, panel of 468 kinases (Homo sapiens, UniProt Q15418).
T9 construct: purchased KINOMEscan (ScanMAX) service
The settings on record: 1 μM, read-out: % control.

In experiment [10] the target is T10, panel of 468 kinases (Homo sapiens, UniProt P51617).
T10 construct: purchased KINOMEscan (ScanMAX) service
The settings on record: IRAK1; 1 μM; read-out: % control.

The target in experiment [11] is T11, panel of 468 kinases (Homo sapiens, UniProt Q00526).
T11 construct: purchased KINOMEscan (ScanMAX) service
The following applies: CDK3; 1 μM; read-out: % control.

For experiment [12], the target named is T12, panel of 468 kinases (Homo sapiens, UniProt P42336, C420R).
T12 construct: purchased KINOMEscan (ScanMAX) service
The settings on record: PIK3CA(C420R); 1 μM; read-out: % control.

Experiment [13] addresses T13, panel of 468 kinases (Homo sapiens, UniProt P08581, Y1235D).
T13 construct: purchased KINOMEscan (ScanMAX) service
The settings on record: MET(Y1235D); 1 μM; read-out: % control.

T8 sequence (P41240 whole entry): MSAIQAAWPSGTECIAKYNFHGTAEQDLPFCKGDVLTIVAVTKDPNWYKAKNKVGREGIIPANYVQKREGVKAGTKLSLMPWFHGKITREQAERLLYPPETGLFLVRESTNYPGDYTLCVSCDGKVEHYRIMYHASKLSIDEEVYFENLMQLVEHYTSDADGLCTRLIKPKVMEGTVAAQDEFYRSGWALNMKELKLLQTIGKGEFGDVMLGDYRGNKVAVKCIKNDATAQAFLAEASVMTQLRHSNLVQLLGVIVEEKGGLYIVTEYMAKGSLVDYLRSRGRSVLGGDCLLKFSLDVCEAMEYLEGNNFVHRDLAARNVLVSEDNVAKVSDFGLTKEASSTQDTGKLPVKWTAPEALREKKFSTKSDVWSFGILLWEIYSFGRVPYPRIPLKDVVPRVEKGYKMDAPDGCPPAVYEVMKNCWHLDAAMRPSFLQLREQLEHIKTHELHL
T12 sequence (P42336 whole entry C420R): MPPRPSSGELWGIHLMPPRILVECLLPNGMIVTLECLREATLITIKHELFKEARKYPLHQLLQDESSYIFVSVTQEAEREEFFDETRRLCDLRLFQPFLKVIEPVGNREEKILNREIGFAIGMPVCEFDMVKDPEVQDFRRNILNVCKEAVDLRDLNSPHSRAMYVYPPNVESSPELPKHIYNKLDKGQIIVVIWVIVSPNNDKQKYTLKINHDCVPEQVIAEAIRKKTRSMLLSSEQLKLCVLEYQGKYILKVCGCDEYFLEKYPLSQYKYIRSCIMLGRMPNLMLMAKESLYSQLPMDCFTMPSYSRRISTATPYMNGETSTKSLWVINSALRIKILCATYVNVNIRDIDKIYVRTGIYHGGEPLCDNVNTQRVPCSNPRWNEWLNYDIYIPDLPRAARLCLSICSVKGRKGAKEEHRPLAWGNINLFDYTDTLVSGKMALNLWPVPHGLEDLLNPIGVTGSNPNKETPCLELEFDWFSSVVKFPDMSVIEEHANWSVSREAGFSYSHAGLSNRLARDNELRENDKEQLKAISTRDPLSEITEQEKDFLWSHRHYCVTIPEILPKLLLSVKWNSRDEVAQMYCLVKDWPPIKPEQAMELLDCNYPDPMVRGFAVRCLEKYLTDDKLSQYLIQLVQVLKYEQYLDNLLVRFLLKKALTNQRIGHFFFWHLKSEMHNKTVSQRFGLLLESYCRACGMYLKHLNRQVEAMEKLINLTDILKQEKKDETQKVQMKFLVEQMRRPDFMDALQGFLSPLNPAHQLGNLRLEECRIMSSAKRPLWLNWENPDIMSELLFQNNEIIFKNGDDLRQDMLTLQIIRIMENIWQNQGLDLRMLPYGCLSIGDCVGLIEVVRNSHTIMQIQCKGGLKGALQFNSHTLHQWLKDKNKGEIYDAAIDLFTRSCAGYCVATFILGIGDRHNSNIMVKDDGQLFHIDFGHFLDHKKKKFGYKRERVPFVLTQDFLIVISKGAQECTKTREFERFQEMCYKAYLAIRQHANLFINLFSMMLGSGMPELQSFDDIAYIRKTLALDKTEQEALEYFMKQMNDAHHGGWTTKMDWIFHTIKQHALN
T6 sequence (P80192 whole entry): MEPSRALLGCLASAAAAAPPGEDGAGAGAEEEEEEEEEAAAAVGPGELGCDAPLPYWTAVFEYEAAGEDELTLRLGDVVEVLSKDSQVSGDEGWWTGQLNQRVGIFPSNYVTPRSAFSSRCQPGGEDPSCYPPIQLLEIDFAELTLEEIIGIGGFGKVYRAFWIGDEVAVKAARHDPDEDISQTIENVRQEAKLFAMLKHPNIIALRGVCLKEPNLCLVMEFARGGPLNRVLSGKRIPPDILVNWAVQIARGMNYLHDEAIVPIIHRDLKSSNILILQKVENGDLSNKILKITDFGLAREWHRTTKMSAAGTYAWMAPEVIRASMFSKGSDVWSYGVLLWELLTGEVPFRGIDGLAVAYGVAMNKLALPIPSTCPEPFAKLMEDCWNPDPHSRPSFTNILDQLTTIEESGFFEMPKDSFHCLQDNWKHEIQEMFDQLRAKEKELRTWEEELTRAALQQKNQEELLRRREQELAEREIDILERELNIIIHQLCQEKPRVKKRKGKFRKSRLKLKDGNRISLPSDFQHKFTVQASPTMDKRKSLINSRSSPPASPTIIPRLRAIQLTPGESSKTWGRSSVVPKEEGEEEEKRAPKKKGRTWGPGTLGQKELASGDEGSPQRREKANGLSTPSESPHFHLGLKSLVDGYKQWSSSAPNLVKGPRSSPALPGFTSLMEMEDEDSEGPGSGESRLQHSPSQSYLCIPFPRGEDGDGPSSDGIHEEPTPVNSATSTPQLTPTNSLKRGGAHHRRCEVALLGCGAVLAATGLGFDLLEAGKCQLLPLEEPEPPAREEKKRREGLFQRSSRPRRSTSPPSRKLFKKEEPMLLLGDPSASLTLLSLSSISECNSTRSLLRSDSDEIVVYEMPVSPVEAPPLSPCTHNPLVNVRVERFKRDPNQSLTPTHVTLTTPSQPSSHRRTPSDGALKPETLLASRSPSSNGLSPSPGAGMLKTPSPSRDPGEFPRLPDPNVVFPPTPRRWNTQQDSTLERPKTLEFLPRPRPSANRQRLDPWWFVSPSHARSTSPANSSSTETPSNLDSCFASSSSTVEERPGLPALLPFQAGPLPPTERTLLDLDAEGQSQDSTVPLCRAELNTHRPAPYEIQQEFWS
T1 sequence (P42685 whole entry): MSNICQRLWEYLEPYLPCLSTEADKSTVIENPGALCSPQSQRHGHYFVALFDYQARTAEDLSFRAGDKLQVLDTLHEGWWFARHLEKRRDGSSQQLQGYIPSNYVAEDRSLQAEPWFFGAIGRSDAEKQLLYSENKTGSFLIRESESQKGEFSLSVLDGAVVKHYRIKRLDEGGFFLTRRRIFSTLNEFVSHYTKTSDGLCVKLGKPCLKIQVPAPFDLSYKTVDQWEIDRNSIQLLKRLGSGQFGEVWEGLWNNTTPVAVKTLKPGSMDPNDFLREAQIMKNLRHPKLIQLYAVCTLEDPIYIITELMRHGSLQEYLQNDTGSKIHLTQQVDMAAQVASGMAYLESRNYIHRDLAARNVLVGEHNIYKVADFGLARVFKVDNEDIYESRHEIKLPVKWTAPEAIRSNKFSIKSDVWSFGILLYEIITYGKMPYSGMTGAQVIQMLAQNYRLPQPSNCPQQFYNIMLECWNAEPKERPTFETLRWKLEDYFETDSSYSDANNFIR
T9 sequence (Q15418 whole entry): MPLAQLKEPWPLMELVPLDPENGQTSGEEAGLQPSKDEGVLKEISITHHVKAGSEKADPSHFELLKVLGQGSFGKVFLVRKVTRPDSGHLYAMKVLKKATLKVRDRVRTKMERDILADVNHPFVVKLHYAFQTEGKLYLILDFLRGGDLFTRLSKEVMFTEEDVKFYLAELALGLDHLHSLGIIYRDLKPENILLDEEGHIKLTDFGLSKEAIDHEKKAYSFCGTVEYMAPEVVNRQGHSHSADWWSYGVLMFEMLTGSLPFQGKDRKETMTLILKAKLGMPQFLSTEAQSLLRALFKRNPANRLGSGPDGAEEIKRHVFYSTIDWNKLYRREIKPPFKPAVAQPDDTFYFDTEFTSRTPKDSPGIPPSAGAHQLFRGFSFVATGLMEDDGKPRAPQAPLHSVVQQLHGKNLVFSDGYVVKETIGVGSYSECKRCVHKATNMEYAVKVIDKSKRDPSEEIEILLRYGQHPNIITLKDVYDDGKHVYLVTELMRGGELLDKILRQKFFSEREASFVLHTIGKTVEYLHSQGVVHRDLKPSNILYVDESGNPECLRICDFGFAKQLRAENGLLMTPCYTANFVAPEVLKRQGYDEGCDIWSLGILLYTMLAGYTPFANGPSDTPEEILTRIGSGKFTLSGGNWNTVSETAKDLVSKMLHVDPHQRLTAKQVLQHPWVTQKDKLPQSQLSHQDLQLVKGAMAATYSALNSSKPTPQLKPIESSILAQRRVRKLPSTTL
T10 sequence (P51617 whole entry): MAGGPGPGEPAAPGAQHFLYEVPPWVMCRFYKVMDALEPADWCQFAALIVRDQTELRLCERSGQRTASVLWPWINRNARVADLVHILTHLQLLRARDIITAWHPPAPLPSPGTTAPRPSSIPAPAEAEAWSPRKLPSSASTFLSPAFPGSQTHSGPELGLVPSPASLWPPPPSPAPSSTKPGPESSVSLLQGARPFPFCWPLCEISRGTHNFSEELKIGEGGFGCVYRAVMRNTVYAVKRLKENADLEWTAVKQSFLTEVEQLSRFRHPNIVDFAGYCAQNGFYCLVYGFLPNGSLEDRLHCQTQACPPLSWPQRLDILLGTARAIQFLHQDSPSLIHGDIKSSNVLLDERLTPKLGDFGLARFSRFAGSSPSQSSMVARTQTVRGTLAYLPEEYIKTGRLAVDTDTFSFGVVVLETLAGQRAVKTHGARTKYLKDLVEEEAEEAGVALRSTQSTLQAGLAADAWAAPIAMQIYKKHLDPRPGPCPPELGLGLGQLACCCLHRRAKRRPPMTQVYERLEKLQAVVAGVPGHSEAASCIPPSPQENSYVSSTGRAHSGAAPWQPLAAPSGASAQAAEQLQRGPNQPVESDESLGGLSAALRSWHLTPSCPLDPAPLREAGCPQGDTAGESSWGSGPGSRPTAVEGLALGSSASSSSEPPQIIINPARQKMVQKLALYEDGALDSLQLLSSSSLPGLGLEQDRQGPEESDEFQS
T11 sequence (Q00526 whole entry): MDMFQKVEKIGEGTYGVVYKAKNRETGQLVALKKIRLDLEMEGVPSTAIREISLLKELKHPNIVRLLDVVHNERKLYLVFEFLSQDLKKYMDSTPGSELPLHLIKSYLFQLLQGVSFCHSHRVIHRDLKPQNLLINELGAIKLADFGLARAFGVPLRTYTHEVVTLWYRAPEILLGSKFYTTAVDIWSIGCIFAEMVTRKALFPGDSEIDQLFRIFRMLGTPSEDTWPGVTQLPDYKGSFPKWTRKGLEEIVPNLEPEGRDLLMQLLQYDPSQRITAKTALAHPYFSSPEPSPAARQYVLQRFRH

For `CNc1nc(Nc2ccc(S(=O)(=O)N3CCC(N4CCOCC4)CC3)cc2OC)nc2[nH]cc(Cl)c12` [Compound 12, 5-chloro-N2-(2-methoxy-4-((4-morpholinopiperidin-1-yl)sulfonyl)phenyl)-N4-methyl-7H-pyrrolo[2,3-d]pyrimidine-2,4-diamine], the remaining binding at 1 µM on panel of 468 kinases [1] is 100%; on panel of 468 kinases [2] it was 75%; at panel of 468 kinases [3], 100%; at panel of 468 kinases [4], 100%; at panel of 468 kinases [5] it was 95%; at panel of 468 kinases [6], 100%. Besides, the remaining binding at 1 µM came out at 96% at panel of 468 kinases [7]; 100% at panel of 468 kinases [8]; 100% at panel of 468 kinases [9] (RSK1(Kin.Dom.1-N-terminal)); 100% on panel of 468 kinases [9] (RSK1(Kin.Dom.2-C-terminal)); 92% at panel of 468 kinases [10]; 86% at panel of 468 kinases [11]. For the same molecule, the remaining binding at 1 µM at panel of 468 kinases [12] and on panel of 468 kinases [13] was 100% throughout.

With `CNc1nc(Nc2ccc(C(=O)N3CCC(N4CCOCC4)CC3)c3c2OCO3)nc2[nH]cc(Cl)c12` [Compound 75, (7-((5-chloro-4-(methylamino)-7H-pyrrolo[2,3-d]pyrimidin-2-yl)amino)benzo[d][1,3]dioxol-4-yl)(4-morpholinopiperidin-1-yl)methanone], the remaining binding at 1 µM at panel of 468 kinases [1] was 100%; at panel of 468 kinases [2], 91%; at panel of 468 kinases [3], 100%; on panel of 468 kinases [4], 100%; at panel of 468 kinases [5] it was 44%; on panel of 468 kinases [6], 91%. Further, the remaining binding at 1 µM at panel of 468 kinases [7] came to 99%; at panel of 468 kinases [8] it was 100%; at panel of 468 kinases [9] (RSK1(Kin.Dom.1-N-terminal)) it was 100%; on panel of 468 kinases [9] (RSK1(Kin.Dom.2-C-terminal)) it was 99%; on panel of 468 kinases [10] it was 51%; on panel of 468 kinases [11], 98%. For the same molecule, the remaining binding at 1 µM at panel of 468 kinases [12] and at panel of 468 kinases [13] was 100% in each case.

Regarding `CNc1nc(Nc2ccc(P3(=O)CCN(C4CCOCC4)CC3)cc2OC)nc2[nH]cc(Cl)c12` [Compound 77, 4-(4-((5-chloro-4-(methylamino)-7H-pyrrolo[2,3-d]pyrimidin-2-yl)amino)-3-methoxyphenyl)-1-(tetrahydro-2H-pyran-4-yl)-1,4-azaphosphinane 4-oxide], the remaining binding at 1 µM at panel of 468 kinases [1] was 100%; at panel of 468 kinases [2], 100%; on panel of 468 kinases [3] it was 100%; at panel of 468 kinases [4], 100%; on panel of 468 kinases [5], 54%; at panel of 468 kinases [6] it was 98%. In addition, the remaining binding at 1 µM on panel of 468 kinases [7] was found to be 100%; at panel of 468 kinases [8] it was 100%; on panel of 468 kinases [9] (RSK1(Kin.Dom.1-N-terminal)) it was 100%; on panel of 468 kinases [9] (RSK1(Kin.Dom.2-C-terminal)) it was 64%; at panel of 468 kinases [10], 88%; on panel of 468 kinases [11] it was 95%. The remaining binding at 1 µM on panel of 468 kinases [12] and at panel of 468 kinases [13] was 100% throughout.
